Data on 6 substances can be found in patent US20130109616A1, “ANTIMICROBIAL PEPTIDES” (priority 2010, published 2013).

“Also recorded” adds a separate entry of the source.

In data set [1] the test system is B. anthracis UM23-CI2 vegetative cells. In kind it is cell-based, Bacillus anthracis.
Data set [2] relates to Burkholderia cepacia J2540. In kind it is cell-based.
A further data set concerns E. coli. Kind of data set: Modified microtitre broth dilution, IC50/IC90. In kind it is cell-based, Escherichia coli. Further details: unit not given here.
Data set [3] deals with B. anthracis UM23-CI2 spores. It is filed as cell-based, Bacillus anthracis.
Data set [4] concerns subtilisin or V8 protease. Put plainly: Protease resistance: membrane-binding ELISA after protease pre-incubation. Particulars: subtilisin and/or V8 protease, 30 minutes at room temperature, FIG. 1. (In general: In an ELISA, binding on a coated surface is turned into a signal by an enzyme label.)
The subject of another data set is Vaccinia virus. In kind it is cell-based.
For data set [5], the system named is Bacillus subtilis membranes. Put plainly: Membrane-binding ELISA. Conditions: expressed peptide fused to 3×FLAG-10×His, no protease.
Data set [6] deals with Candida albicans (SC5314). Put plainly: Serial dilution growth/killing assay. In kind it is cell-based. Conditions: serial dilutions, 14 hours at 30° C., FIG. 6; peptides C-terminally amidated.
The subject of data set [7] is Staphylococcus aureus (NC131142). Kind of data set: Serial dilution growth/killing assay. It is filed as cell-based. Particulars: peptides C-terminally amidated.

Regarding “LLGDFFRKSKEKIGKEFKRIVQRIKDFLRNLVPRTES [LL-37, reference compound]”, in data set [1], the “activity against Bacillus anthracis vegetative cells (in words)” value is listed as “did not have activity”. Besides, in [2], the “effect on growth of B. cepacia” value is “no effect on the growth”. Also, in the data set with E. coli, the IC50 was 15.6-31.3 and the IC90 is recorded as 15.6-31.3. Besides, in data set [3], the “bactericidal activity against Bacillus anthracis spores (in words)” value (from here on “bactericidal activity”) was “better activity than MA-22” and the “duration of antibacterial activity, spores” value (“duration … spores” below) was “activity was lost within the 24 hour period”.

With “LLGVFFRKRKAKIGKKFKRILQRIKDFRRNLVPRIKS [Peptide C11]”, the “effect on growth of B. cepacia” value in data set [2] was “prevent B. cepacia from growing”. Besides, in the data set on E. coli, the IC50 is 15.6-31.3 and the IC90 was 31.3-62.5. Further, the “bactericidal activity” value in [3] was “improved bactericidal activity”.

Take VKRIVQRIKVFLRNLMPRSKS [Peptide G11]: the “ELISA binding signal after protease treatment (proteolytic resistance)” value in data set [4] was “increase signal strength”. Moreover, in data set [2], the “effect on growth of B. cepacia” value is “prevent B. cepacia from growing”. In addition, in the data set on E. coli, the IC50 is listed as 31.3-62.5 and the IC90 is recorded as 62.5-125. Moreover, the “bactericidal activity” value in data set [3] is “improved bactericidal activity”.

Take FKRIVQRIKDFLRKLVPRIMS [Peptide H04]: in data set [1], the “change in cell number, exponential phase cells” value is given as “further reductions in cell number” and the “duration of antibacterial activity, vegetative cells” value is reported as “still effective at the end of the 24-hour period”. For the same substance, in data set [2], the “activity against B. cepacia at 24 hours” value is recorded as “no bacteria were detectable; also recorded: effective killing activity over the entire duration of the 24-hour testing period” and the “reduction of the starting culture of B. cepacia” value is reported as 99.9%. Further, in the data set with E. coli, the IC50 is 7.8-15.6 and the IC90 is 15.6-31.3. Moreover, in data set [3], the “bactericidal activity” value is given as “improved bactericidal activity” and the “duration … spores” value is listed as “still effective at the end of the 24-hour period”. In addition, the “anti-viral activity against Vaccinia virus compared with LL-37” value in the data set with Vaccinia virus is “greater anti-viral activity than the wild-type peptide, LL-37”.

With “wild-type full length LL-37 peptide fused to 3×FLAG-10×His [reference compound]”, the “binding to immobilised Bacillus subtilis membranes (ELISA signal)” value in data set [5] was “significant binding”. Further, the “ELISA binding signal after protease treatment (proteolytic resistance)” value in data set [4] is given as “abolished the signal”.

Consider “FRRIVQRIKDFLRNLVMRRKN [Peptide F11, FRRIVQRIKDFLRNLV MRRKN]”, for which, in data set [1], the “change in cell number, exponential phase cells” value is “further reductions in cell number” and the “duration of antibacterial activity, vegetative cells” value was “still effective at the end of the 24-hour period”. Further, in [6], the “killing of C. albicans compared with MAF-23 peptides” value was “killed C. albicans more effectively than the wild type peptides MAF23 and acetylated MAF23”. In data set [2], the “activity against B. cepacia at 24 hours” value was “effective killing activity over the entire duration of the 24-hour testing period” and the “reduction of the starting culture of B. cepacia” value is listed as approximately 99%. The “colonies recovered, S. aureus” value in [7] (25 nM peptide) is reported as “approximately 10^3 colonies/ml”. Besides, in data set [7] (serial dilutions, 14 hours at 30° C., FIG. 5), the “killing of S. aureus compared with MAF-23 peptides” value is recorded as “killed S. aureus more effectively than the MA23 or N-terminally acetylated MA23”. In the data set on E. coli, the IC50 is listed as 7.8-15.6 and the IC90 is 7.8-15.6. For the same substance, in data set [3], the “bactericidal activity” value was “improved bactericidal activity” and the “duration … spores” value was “still effective at the end of the 24-hour period”. For the same substance, the “anti-viral activity against Vaccinia virus compared with LL-37” value in the data set with Vaccinia virus is “greater anti-viral activity than the wild-type peptide, LL-37”.
